ChEMBL document CHEMBL5335822, “Identification of benzothiazole derived monosaccharides as potent, selective, and orally bioavailable inhibitors of human and mouse galectin-3; a rare example of using a S···O binding interaction for drug design” (Bioorg Med Chem, 2024)
pIC50: −log10 of the molar value.

What was measured:
[1] = Cmax in mouse at 10 mg/kg,po administration; assay type: ADME, organism-based; parameters: dose 10 mg/kg, route po; conditions: in vivo
[2] = Volume of distribution at steady state in mouse at 10 mg/kg,po administration; assay type: ADME, organism-based; conditions: in vivo
[3] = Permeability of the compound at pH 7.4 incubated for 4 hrs by PAMPA based SpectraMax UV-plate reader analysis; assay type: ADME; conditions: read-out: permeability
[4] = AUC in mouse at 10 mg/kg,po administration; assay type: ADME, organism-based; parameters: dose 10 mg/kg, route po; conditions: in vivo
[5] = Clearance in mouse at 10 mg/kg,po administration; assay type: ADME, organism-based; conditions: in vivo
[6] = Oral bioavailability in mouse at 10 mg/kg administration; assay type: ADME, organism-based; conditions: in vivo
[7] = target: Galectin-3 (Mus musculus, UniProt P16110); assay: Inhibition of mouse Galectin-3
[8] = target: Galectin-1 (Homo sapiens, UniProt P09382); assay: Inhibition of human Galectin-1
[9] = target: Galectin-9 (Homo sapiens, UniProt O00182); assay: Inhibition of human Galectin-9
[10] = Permeability of the compound at pH 5.5 incubated for 4 hrs by PAMPA based SpectraMax UV-plate reader analysis; assay type: ADME; conditions: read-out: permeability
[11] = target: Galectin-3 (Homo sapiens, UniProt P17931); assay: Inhibition of human Galectin-3
[12] = species on record: Homo sapiens; assay: Selectivity ratio of IC50 for inhibition of human Galectin-9 to IC50 for inhibition of human Galectin-3
[13] = species on record: Homo sapiens; assay: Selectivity ratio of IC50 for inhibition of human Galectin-1 to IC50 for inhibition of human Galectin-3

Galectin-3 (Homo sapiens, UniProt P17931), sequence (P17931 whole entry): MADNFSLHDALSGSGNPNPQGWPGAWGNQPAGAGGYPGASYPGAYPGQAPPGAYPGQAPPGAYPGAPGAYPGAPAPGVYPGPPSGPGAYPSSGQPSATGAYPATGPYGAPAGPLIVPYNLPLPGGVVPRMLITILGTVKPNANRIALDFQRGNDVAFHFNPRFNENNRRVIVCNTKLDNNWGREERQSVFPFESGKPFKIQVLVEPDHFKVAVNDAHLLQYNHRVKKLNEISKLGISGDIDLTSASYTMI
Galectin-3 (Mus musculus, UniProt P16110), sequence (P16110 whole entry): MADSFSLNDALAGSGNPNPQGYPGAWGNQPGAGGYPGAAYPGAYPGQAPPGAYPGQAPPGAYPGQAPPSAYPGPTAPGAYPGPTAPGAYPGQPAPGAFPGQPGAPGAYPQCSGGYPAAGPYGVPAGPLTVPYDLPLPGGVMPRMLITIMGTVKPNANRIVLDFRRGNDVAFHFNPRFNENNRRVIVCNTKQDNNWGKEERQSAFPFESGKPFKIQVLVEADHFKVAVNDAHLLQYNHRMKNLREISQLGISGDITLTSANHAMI
Galectin-9, sequence (O00182 whole entry): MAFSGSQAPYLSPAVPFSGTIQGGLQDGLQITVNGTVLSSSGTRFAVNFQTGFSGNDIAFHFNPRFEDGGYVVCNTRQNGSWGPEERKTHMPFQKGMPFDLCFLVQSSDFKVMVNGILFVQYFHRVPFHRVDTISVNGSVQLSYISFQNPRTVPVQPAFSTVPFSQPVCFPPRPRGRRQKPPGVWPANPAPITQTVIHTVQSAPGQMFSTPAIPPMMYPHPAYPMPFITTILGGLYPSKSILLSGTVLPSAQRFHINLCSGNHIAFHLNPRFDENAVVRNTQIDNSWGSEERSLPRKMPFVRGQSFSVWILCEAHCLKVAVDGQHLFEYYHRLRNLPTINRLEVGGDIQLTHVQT
Galectin-1, sequence (P09382 whole entry): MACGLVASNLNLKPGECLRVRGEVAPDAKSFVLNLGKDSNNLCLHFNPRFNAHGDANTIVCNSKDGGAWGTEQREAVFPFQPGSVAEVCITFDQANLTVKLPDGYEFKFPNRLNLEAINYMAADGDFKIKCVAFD

Row | Structure (SMILES) | Papp at 4 h [3] | pIC50 [7] | Papp at 4 h [10] | pIC50 [11] | also measured
1 | Cc1nc2cc(Cl)c(-n3ncnc3[C@@H]3O[C@H](CO)[C@H](O)[C@H](n4cc(-c5cc(F)c(F)c(F)c5)nn4)[C@H]3O)cc2s1 | – | 5.88 | – | 7.15 | –
2 | Cc1nc2ccc(N(C)C(=O)[C@@H]3O[C@H](CO)[C@H](O)[C@H](n4cc(-c5cc(F)c(F)c(F)c5)nn4)[C@H]3O)cc2s1 | 0.8 ×10⁻⁶ cm/s | 5.45 | 1.9 ×10⁻⁶ cm/s | – | –
3 | Cc1nc2cc(C)c(-n3ncnc3[C@@H]3O[C@H](CO)[C@H](O)[C@H](n4cc(-c5cc(F)c(F)c(F)c5)nn4)[C@H]3O)cc2s1 | – | 5.92 | – | 7.28 | –
4 | Cc1nc([C@@H]2O[C@H](CO)[C@H](O)[C@H](n3cc(-c4cc(F)c(F)c(F)c4)nn3)[C@H]2O)n(-c2ccc3ncsc3c2)n1 | 3.9 ×10⁻⁶ cm/s | 6.27 | 1.5 ×10⁻⁶ cm/s | 7.55 | –
5 | CO[C@@H]1[C@@H](n2cc(-c3cc(F)c(F)c(F)c3)nn2)[C@@H](O)[C@@H](CO)O[C@H]1C(=O)N(C)c1ccc2ncsc2c1 | 17.2 ×10⁻⁶ cm/s | 6.30 | 14.4 ×10⁻⁶ cm/s | – | pIC50 [8]: 5.49; pIC50 [9]: 5.00
6 | Cc1nc2ccc(-n3ncnc3[C@@H]3O[C@H](CO)[C@H](O)[C@H](n4cc(-c5cc(F)c(F)c(F)c5)nn4)[C@H]3O)cc2s1 | – | 5.91 | – | 7.20 | –
7 | OC[C@H]1O[C@@H](c2ncnn2-c2ccc3ncsc3c2)[C@H](O)[C@@H](n2cc(-c3cc(F)c(F)c(F)c3)nn2)[C@H]1O | – | 6.03 | – | 7.43 | –
8 | CO[C@@H]1[C@@H](n2cc(-c3cc(F)c(F)c(F)c3)nn2)[C@@H](O)[C@@H](CO)O[C@H]1C(=O)N(C)c1ccc2nc(C)sc2c1 | 18.6 ×10⁻⁶ cm/s | 5.60 | 29.8 ×10⁻⁶ cm/s | – | –
9 | CO[C@@H]1[C@@H](n2cc(-c3cc(F)c(Cl)c(F)c3)nn2)[C@@H](O)[C@@H](CO)O[C@H]1C(=O)Nc1ccc2ncsc2c1 | – | < 4.52 | – | < 5.00 | –

Now those with a higher pIC50 [7], led by results:

Row | Papp at 4 h [3] | pIC50 [7] | Papp at 4 h [10] | pIC50 [11] | Structure (SMILES) | also measured
10 | 29.5 ×10⁻⁶ cm/s | 6.77 | 29.4 ×10⁻⁶ cm/s | – | CO[C@H]1C(C(=O)N(C)c2ccc3ncsc3c2)O[C@H](CO)[C@H](O)[C@@H]1n1cc(-c2ccc(Cl)c(F)c2F)nn1 (single isomer, unassigned) | Cmax [1]: 3100 nM; Vdss [2]: 2.1 L/kg; AUC [4]: 13 µM·h; CL/F [5]: 12 mL/min/kg; bioavailability [6]: 52%; pIC50 [8]: 5.80; pIC50 [9]: 5.56
11 | – | 6.82 | 10.4 ×10⁻⁶ cm/s | 7.74 | Cc1nc([C@@H]2O[C@H](CO)[C@H](O)[C@H](n3cc(-c4cc(F)c(Cl)c(F)c4)nn3)[C@H]2O)n(-c2ccc3ncsc3c2)n1 | –
12 | 13.7 ×10⁻⁶ cm/s | 6.75 | 9 ×10⁻⁶ cm/s | 7.66 | Cc1nc([C@@H]2O[C@H](CO)[C@H](O)[C@H](n3cc(-c4cc(F)c5ccccc5c4)nn3)[C@H]2O)n(-c2ccc3ncsc3c2)n1 | –
13 | 80.2 ×10⁻⁶ cm/s | 7.08 | 73.1 ×10⁻⁶ cm/s | 7.96 | CO[C@@H]1[C@@H](n2cc(-c3ccc(Cl)c(F)c3F)nn2)[C@@H](O)[C@@H](CO)O[C@H]1c1nc(C)nn1-c1ccc2ncsc2c1 | Ratio IC50 [12]: 321; Cmax [1]: 4300 nM; Ratio IC50 [13]: 247; Vdss [2]: 1.8 L/kg; AUC [4]: 14 µM·h; CL/F [5]: 8 mL/min/kg; bioavailability [6]: 40%; pIC50 [8]: 5.57; pIC50 [9]: 5.45
14 | – | 6.37 | – | – | CCN(C(=O)[C@@H]1O[C@H](CO)[C@H](O)[C@H](n2cc(-c3cc(F)c(Cl)c(F)c3)nn2)[C@H]1OC)c1ccc2ncsc2c1 | –
15 | 53.8 ×10⁻⁶ cm/s | 6.69 | 57.8 ×10⁻⁶ cm/s | – | CO[C@@H]1[C@@H](n2cc(-c3cc(F)c(Br)c(F)c3)nn2)[C@@H](O)[C@@H](CO)O[C@H]1C(=O)N(C)c1ccc2ncsc2c1 | –
16 | – | 6.82 | 59.1 ×10⁻⁶ cm/s | – | CO[C@@H]1[C@@H](n2cc(-c3cc(F)c(Cl)c(F)c3)nn2)[C@@H](O)[C@@H](CO)O[C@H]1c1nc(C)nn1-c1ccc2ncsc2c1 | –
17 | 16.7 ×10⁻⁶ cm/s | 6.75 | 16 ×10⁻⁶ cm/s | – | CO[C@@H]1[C@@H](n2cc(-c3cc(F)c(Cl)c(F)c3)nn2)[C@@H](O)[C@@H](CO)O[C@H]1C(=O)N(C)c1ccc2ncsc2c1 | –
18 | 4.8 ×10⁻⁶ cm/s | 6.84 | 5.2 ×10⁻⁶ cm/s | – | Cc1nc([C@@H]2O[C@H](CO)[C@H](O)[C@H](n3cc(-c4cc(F)c(Br)c(F)c4)nn3)[C@H]2O)n(-c2ccc3ncsc3c2)n1 | –
19 | 16.3 ×10⁻⁶ cm/s | 7.07 | 24.1 ×10⁻⁶ cm/s | 8.06 | Cc1nc([C@@H]2O[C@H](CO)[C@H](O)[C@H](n3cc(-c4ccc(Cl)c(F)c4F)nn3)[C@H]2O)n(-c2ccc3ncsc3c2)n1 | Ratio IC50 [12]: 342; Ratio IC50 [13]: 435; pIC50 [8]: 5.42; pIC50 [9]: 5.52
20 | 30.1 ×10⁻⁶ cm/s | 7.35 | 30.7 ×10⁻⁶ cm/s | 8.14 | Cc1nc([C@@H]2O[C@H](CO)[C@H](O)[C@H](n3cc(-c4ccc(Br)c(F)c4F)nn3)[C@H]2O)n(-c2ccc3ncsc3c2)n1 | Ratio IC50 [12]: 293; Cmax [1]: 600 nM; Ratio IC50 [13]: 361; AUC [4]: 3 µM·h; pIC50 [8]: 5.59; pIC50 [9]: 5.68
21 | 26.9 ×10⁻⁶ cm/s | 7.02 | 27.9 ×10⁻⁶ cm/s | – | CO[C@@H]1[C@@H](n2cc(-c3ccc(Br)c(F)c3F)nn2)[C@@H](O)[C@@H](CO)O[C@H]1C(=O)N(C)c1ccc2ncsc2c1 | –
22 | – | 7.21 | 104 ×10⁻⁶ cm/s | – | CO[C@@H]1[C@@H](n2cc(-c3ccc(Br)c(F)c3F)nn2)[C@@H](O)[C@@H](CO)O[C@H]1c1nc(C)nn1-c1ccc2ncsc2c1 | Ratio IC50 [12]: 186; Cmax [1]: 1800 nM; Ratio IC50 [13]: 271; AUC [4]: 8.7 µM·h; pIC50 [8]: 5.45; pIC50 [9]: 5.62
23 | – | 6.82 | – | 7.52 | CO[C@@H]1[C@@H](n2cc(-c3cc(F)c(Br)c(F)c3)nn2)[C@@H](O)[C@@H](CO)O[C@H]1c1nc(C)nn1-c1ccc2ncsc2c1 | –
